This is an account of results in patent US5510247A, “Centrifugal multiphase systems and method for using the same” (University of Pittsburgh, priority 1993, dated 1996).

The structures appear in SMILES notation.

A word on the Km: it is the concentration of substrate that gives half-maximal velocity. As a reminder, the Vmax is the top rate of the reaction or transport when substrate is in excess. By kcat is commonly meant the number of substrate molecules converted per active site and unit of time at saturation.

For test [1], the target named is T1, phosphotriesterase (Brevundimonas diminuta, UniProt P0A434). Put plainly: Batch Michaelis-Menten kinetics of phosphotriesterase with pesticide substrates in Tween 85 reversed micelles and in Tris-HCl buffer. In kind it is biochemical. More on the design: made in house. How it is done:
Solutions of micelles were prepared in the following manner: 8 ml isopropanol was added to 13 g Tween 85 and Hexane was added to achieve a mixture of 50 ml. Water or Tris-HCl buffer (0.05M, pH 7.0) and hexane were added to this mixture to yield the desired system. […] Appropriate volumes were mixed to fill 1 ml quartz cuvettes, and the reaction was followed in a spectrophotometer. (Perkin Elmer Lambda 3). Michaelis-Menten kinetic constants (discussed below) were found by non-linear regression analysis of the initial rate data.
Enzymes function as catalysts in solution by lowering the free energy of the transition state in a reaction. Like conventional catalysts, the enzyme facilitates the reaction, but is in no way altered, so that when the reaction is completed, it is available to catalyze the conversion of more substrate molecules. When a single substrate is converted to product, the schematic of the reaction can be written [drawing 2] where S and P are substrate and product, respectively, and ES is an enzyme substrate complex. When the substrate concentration is much higher than the enzyme concentration, the enzyme is said to obey the Michaelis-Menten relationship describing the reaction rate, [formula] where (E) is the total enzyme concentration and (S) is the initial substrate concentration. KM is the saturation constant, and is a function of the individual rate constants, [formula] KM has the physical meaning as the substrate concentration which yields half the maximal reaction rate (Vmax), which is dependent on the catalytic rate constant of the chemcial step, k2, as well as the enzyme concentration,
Initial experiments were performed using paraoxon, parathion and methyl paraoxon. The effect of micelle size, pH, ionic strength and temperature have been investigated.

Test [2] has as its target T1, phosphotriesterase. Put plainly: Enzyme activity for paraoxon degradation and enzyme partitioning in the two-phase organic/reverse micelle system (Tween rich heavy phase, excess hexane phase). Format: biochemical. More on the design: made in house. The following applies: Tween rich heavy phase of the organic/reverse micelle two-phase system. The text has this: As set forth above, if the products of the reaction are more soluble in the organic phase than in an aqueous phase, it is preferable to choose a system with an excess of organic phase to facilitate product removal. Such a region can be found, for example, in FIG. 2C in the lower left hand corner of the phase diagram. This region is illustrated in FIG. 12 as the shaded area.
In this region, close to the single phase region, reverse micelles form with an excess hexane phase which has a low concentration (<15 mM) of Tween with adsorbed water.

Test [3] has as its target T1, phosphotriesterase.
The mark [4] stands for this setting: Tris-HCl buffer, 10% Methanol added to enhance solubility.

With `COP(=O)(OC)Oc1ccc([N+](=O)[O-])cc1` [METHYL PARAOXON, methyl paraoxon], the Michaelis constant (Km) at phosphotriesterase [1] (Tris-HCl buffer) came out at 0.146 mM; at phosphotriesterase [1] (micelles, Wo 5.5), 17.2 ± 3.2 mM; at phosphotriesterase [1] (micelles, Wo 28), 15.6 ± 2 mM; at phosphotriesterase [1] (micelles, Wo 46) it was 15.3 ± 1.9 mM; on phosphotriesterase [1] (micelles, Wo 66), 37.2 ± 11 mM; on phosphotriesterase [1] (micelles, Wo 82), 32.9 ± 8.9 mM. Also, the Km on phosphotriesterase [1] (micelles, Wo 122) was determined as 50 ± 19 mM. The maximum rate (Vmax) on phosphotriesterase [1] (Tris-HCl buffer) came to 2293 µmol/mg/min; on phosphotriesterase [1] (micelles, Wo 5.5), 26.5 ± 2.8 µmol/mg/min; on phosphotriesterase [1] (micelles, Wo 28), 43.2 ± 2.4 µmol/mg/min; at phosphotriesterase [1] (micelles, Wo 46) it was 53.1 ± 3.0 µmol/mg/min; at phosphotriesterase [1] (micelles, Wo 66) it was 192 ± 37 µmol/mg/min; at phosphotriesterase [1] (micelles, Wo 82), 225 ± 38 µmol/mg/min. The Vmax at phosphotriesterase [1] (micelles, Wo 122) is 397 ± 111 µmol/mg/min. The kcat at phosphotriesterase [1] (Tris-HCl buffer) was 1509 s⁻¹; at phosphotriesterase [1] (micelles, Wo 5.5) it was 17 s⁻¹; on phosphotriesterase [1] (micelles, Wo 28), 28 s⁻¹; on phosphotriesterase [1] (micelles, Wo 46), 35 s⁻¹; at phosphotriesterase [1] (micelles, Wo 66) it was 126 s⁻¹; at phosphotriesterase [1] (micelles, Wo 82), 148 s⁻¹. The kcat at phosphotriesterase [1] (micelles, Wo 122) turned out to be 261 s⁻¹. Moreover, the “kcat /KM” value at phosphotriesterase [1] (Tris-HCl buffer) was 10,340 mM^-1 s^-1; on phosphotriesterase [1] (micelles, Wo 5.5), 1.0 mM⁻¹ s⁻¹; at phosphotriesterase [1] (micelles, Wo 28), 1.182 mM⁻¹ s⁻¹; on phosphotriesterase [1] (micelles, Wo 46), 2.28 mM⁻¹ s⁻¹; at phosphotriesterase [1] (micelles, Wo 66), 3.35 mM⁻¹ s⁻¹; at phosphotriesterase [1] (micelles, Wo 82), 4.5 mM⁻¹ s⁻¹. Also, the “kcat /KM” value on phosphotriesterase [1] (micelles, Wo 122) turned out to be 5.2 mM⁻¹ s⁻¹.

Consider `CCOP(=O)(OCC)Oc1ccc([N+](=O)[O-])cc1` [PARAOXON, Paraoxon], for which the Vmax on phosphotriesterase [1] (Tris-HCl buffer) came out at 1.686 ± 42 µmol/mg/min; at phosphotriesterase [1] (micelles, Wo 6.9), 107 ± 12 µmol/mg/min; on phosphotriesterase [1] (micelles, Wo 30) it was 430 ± 28 µmol/mg/min; at phosphotriesterase [1] (micelles, Wo 45), 556 ± 80 µmol/mg/min; on phosphotriesterase [1] (micelles, Wo 69), 992 ± 149 µmol/mg/min; at phosphotriesterase [1] (micelles, Wo 125), 1.753 ± 259 µmol/mg/min. Moreover, the kcat on phosphotriesterase [1] (Tris-HCl buffer) is 1,110 ± 28 s^-1; at phosphotriesterase [1] (micelles, Wo 6.9), 70.3 ± 7.9 s⁻¹; at phosphotriesterase [1] (micelles, Wo 30) it was 283 ± 18.4 s⁻¹; on phosphotriesterase [1] (micelles, Wo 45), 366 ± 53 s⁻¹; on phosphotriesterase [1] (micelles, Wo 69) it was 653 ± 98 s⁻¹; on phosphotriesterase [1] (micelles, Wo 86), 789 ± 86 s⁻¹. Besides, the catalytic constant (kcat) is 1150 ± 170 s⁻¹ on phosphotriesterase [1] (micelles, Wo 125) and 975 s⁻¹ on phosphotriesterase [2]. The “kcat /KM” value was 58,421 mM^-1 s^-1 at phosphotriesterase [1] (Tris-HCl buffer); 4.9 mM⁻¹ s⁻¹ on phosphotriesterase [1] (micelles, Wo 6.9); 9.8 mM⁻¹ s⁻¹ at phosphotriesterase [1] (micelles, Wo 30); 11.8 mM⁻¹ s⁻¹ at phosphotriesterase [1] (micelles, Wo 45); 18.8 mM⁻¹ s⁻¹ at phosphotriesterase [1] (micelles, Wo 69); 23.7 mM⁻¹ s⁻¹ at phosphotriesterase [1] (micelles, Wo 86). The “kcat /KM” value at phosphotriesterase [1] (micelles, Wo 125) was determined as 39.1 mM⁻¹ s⁻¹. In addition, the Michaelis constant (Km) on phosphotriesterase [1] (micelles, Wo 6.9) was 14.3 ± 3.4 mM; at phosphotriesterase [1] (micelles, Wo 30), 28.9 ± 3.8 mM; on phosphotriesterase [1] (micelles, Wo 45), 31.2 ± 8.2 mM; at phosphotriesterase [1] (micelles, Wo 69), 34.8 ± 9 mM; on phosphotriesterase [1] (micelles, Wo 86), 33.3 ± 6.7 mM; at phosphotriesterase [1] (micelles, Wo 125) it was 29.5 ± 8.3 mM. In addition, at phosphotriesterase [2], the Michaelis constant (Km) was found to be 32 mM.

`CCOP(=S)(OCC)Oc1ccc([N+](=O)[O-])cc1` [PARATHION, Parathion]: the Km was found to be 0.35 ± 0.08 mM on phosphotriesterase [1] (setting [4]) and 81 ± 16 mM on phosphotriesterase [1] (micelles, Wo 6). The maximum rate (Vmax) at phosphotriesterase [1] (setting [4]) is 2850 ± 540 µmol/mg/min; at phosphotriesterase [1] (micelles, Wo 6), 1.37 ± 0.15 µmol/mg/min; at phosphotriesterase [1] (micelles, Wo 29) it was 9.7 ± 1.4 µmol/mg/min; on phosphotriesterase [1] (micelles, Wo 45) it was 14.7 ± 2.4 µmol/mg/min; at phosphotriesterase [1] (micelles, Wo 70), 28 ± 17 µmol/mg/min; on phosphotriesterase [1] (micelles, Wo 85) it was 52 ± 28 µmol/mg/min. Further, the kcat came out at 1870 ± 360 s⁻¹ at phosphotriesterase [1] (setting [4]); 0.90 ± 0.10 s⁻¹ on phosphotriesterase [1] (micelles, Wo 6); 6.4 ± 0.9 s⁻¹ on phosphotriesterase [1] (micelles, Wo 29); 9.7 ± 1.6 s⁻¹ at phosphotriesterase [1] (micelles, Wo 45); 18 ± 11 s⁻¹ at phosphotriesterase [1] (micelles, Wo 70); 34 ± 18 s⁻¹ at phosphotriesterase [1] (micelles, Wo 85). Also, the “kcat /KM” value at phosphotriesterase [1] (setting [4]) is 5,340 mM^-1 s^-1; at phosphotriesterase [1] (micelles, Wo 6), 0.011 mM⁻¹ s⁻¹; at phosphotriesterase [1] (micelles, Wo 29), 0.054 mM⁻¹ s⁻¹; at phosphotriesterase [1] (micelles, Wo 45), 0.074 mM⁻¹ s⁻¹; at phosphotriesterase [1] (micelles, Wo 70), 0.082 mM⁻¹ s⁻¹; on phosphotriesterase [1] (micelles, Wo 85), 0.082 mM⁻¹ s⁻¹.

For `OCCO` [ethylene glycol], on phosphotriesterase [3] (micelles prepared with it as a cosurfactant), the “effect on enzyme activity” value was “enhanced enzyme activity”.

For `CC(C)O` [isopropanol], the “effect on activity of phosphotriesterase” value at phosphotriesterase [3] (in buffer) is on record as “reduce the activity”.
